{"source": "a melting point compilation (Tetko et al.; mined from patent text by program, amines drawn as free bases though some values may be those of a salt)", "data": [{"units": {"melting point": "°C"}, "values": [{"smiles": "CCc1oc2ccccc2c1C(=O)c1cc(-c2ccccc2)c(O)c(-c2ccccc2)c1", "melting point": "142 to 143"}, {"smiles": "Cc1cc(-c2c(-c3ccc(F)cc3)ncn2CC2CC2)ccn1", "melting point": "141 to 142"}, {"smiles": "COCCc1ccc(OCC(O)CNC2CCc3ccccc3C2)cc1", "note": "(configuration not stated)", "melting point": "95 to 97"}, {"smiles": "CC(C)(C)OC(=O)Nc1ccc(-c2ccccc2F)cc1NC(=O)CC(=O)c1cccc(-n2ccnc2)c1", "melting point": "50 to 58"}, {"smiles": "Cc1cc2nncn2nc1-c1ccc(C(N)=S)cc1", "melting point": "268 to 272"}, {"smiles": "CCOC(=O)c1nc2c(C)nn(CC)c2nc1OCC", "melting point": "81 to 82"}, {"smiles": "CN(C(=O)c1ccc(Cn2cnc3cnccc32)cc1)C1CCCCC1", "melting point": "121 to 123"}, {"smiles": "O=[N+]([O-])c1oc2ccccc2c1-n1ccnc1", "melting point": "147 to 149"}, {"smiles": "CCCCCN(CCCCC)C(=O)CCCCC(=O)O", "melting point": 152}, {"smiles": "O=C(O)CC(c1ccccc1)C(F)(F)F", "note": "(configuration not stated)", "melting point": 72}, {"smiles": "COc1c(Cl)ccc(-c2cc(N)c(Cl)c(C(=O)NOCc3ccccc3)n2)c1F", "melting point": "166 to 169"}, {"smiles": "NC(=NCC(F)(F)F)Nc1ccnc(OCCCO)n1", "melting point": "118 to 120"}, {"smiles": "O=C(Nc1nccs1)C(=O)c1cn(Cc2ccc(F)cc2)c2ccccc12", "melting point": "233 to 237"}, {"smiles": "COCC(=O)Nc1cc(C#N)cc(NC(=O)COC)c1Cl", "melting point": "173 to 174"}, {"smiles": "O=C(O)c1ncn2c1Cn1ccnc1-c1sccc1-2", "melting point": "225 to 227"}, {"smiles": "O=C(O)c1cc(-c2ccc(C(F)(F)F)cc2)nc(-c2ccc(C(F)(F)F)cc2)c1", "melting point": "289 to 290"}, {"smiles": "N#Cc1c(N2CCN(C(=O)c3cccs3)CC2)c2cc(Cl)ccc2n(Cc2ccc(F)cc2)c1=O", "melting point": 253}, {"smiles": "COC(=O)C1=C(C)NC(C)=C(C(=O)OCC2CCCO2)C1c1cccc(C(F)(F)F)c1", "note": "(configuration not stated)", "melting point": "108 to 110"}, {"smiles": "CCCCCCCCCCCC1Cc2c(cccc2C(=O)O)N1", "note": "(racemic)", "melting point": "105 to 108"}, {"smiles": "OCc1cc(Cl)cc(Cl)c1Cl", "melting point": "90 to 93"}, {"smiles": "CCOc1cc(OCCCc2cn(-c3ccc(C(F)(F)F)cn3)nc2OCc2ccccc2)ccc1CCC(=O)O", "melting point": "106 to 107"}, {"smiles": "CC(=O)Nc1nc2ccc(Cl)nc2c(=O)[nH]1", "melting point": "317 to 319"}, {"smiles": "O=C(/C=C/c1ccc(CN2CCCC2)cc1)Nc1ccc(Br)cc1", "melting point": "184 to 186"}, {"smiles": "CN1CCNC1=C[N+](=O)[O-]", "melting point": "142 to 144"}, {"smiles": "Cn1c(C(F)(F)F)cc(=O)n(-c2ccc3snc(C(=O)O)c3c2)c1=O", "melting point": "149 to 152"}, {"smiles": "NC(=O)c1ccc2cc(O)ccc2c1", "melting point": "205 to 206"}, {"smiles": "CC(=O)OCc1ccccc1/C(=N\\O)C(N)=O", "melting point": "112 to 114"}, {"smiles": "CC(C)n1cc(C#N)c(-c2ccc([N+](=O)[O-])o2)n1", "melting point": "181 to 182"}, {"smiles": "COc1ccc(C2=NNC(=O)Cc3cc4c(cc32)OCO4)cc1", "melting point": "194 to 196"}, {"smiles": "Cn1c(COc2ccc(CC3SC(=O)NC3=O)cc2)nc2ccc(OCCc3ccc(NC(=O)Nc4ccc(Cl)cc4)cc3)cc21", "note": "(configuration not stated)", "melting point": "157 to 162"}, {"smiles": "CCOC(=O)c1cc(S)n2nc(C)nc2n1", "melting point": "234 to 236"}, {"smiles": "COc1ccccc1Oc1c(O)nc(-c2cccc(OCc3ccccc3)c2)nc1O", "melting point": "192 to 195"}, {"smiles": "Cc1c2c(nc3ccccc13)CCN(C(=N)N)CC2", "melting point": 140}, {"smiles": "NC(CC(=O)c1ccc(N2CCN(c3ccncc3)CC2)cc1)C(=O)O", "note": "(configuration not stated)", "melting point": "263 to 264"}, {"smiles": "O=c1cc(-c2ccncc2)nc2n1CCC(c1ccncc1)N2CC(O)c1cccc(Br)c1", "note": "(configuration not stated)", "melting point": "190 to 192"}, {"smiles": "CCCCCCn1c(-c2ccc3c(c2)OCO3)nc2ccccc21", "melting point": "60.5 to 61.6"}, {"smiles": "CC(=O)N(C)Nc1ccc(CCn2cnc3cc(-c4ccc(Cl)cc4)sc3c2=O)cc1", "melting point": "267 to 268"}, {"smiles": "COc1ccc(Cn2c(=O)cc(-c3ccccn3)c3cnc(N4CCC[C@H]4CO)nc32)cc1Cl", "melting point": "184 to 186"}, {"smiles": "COc1ccc(Nc2nc(NC3CC3)nc(NC3CC3)n2)cc1F", "melting point": "91 to 92"}, {"smiles": "CC(=O)Oc1ccccc1C(=O)NC(Oc1ccc2ccccc2c1)C(Cl)(Cl)Cl", "note": "(configuration not stated)", "melting point": "158 to 160"}, {"smiles": "CC(=O)N1CCN(c2ccc(-c3cnc4[nH]cc(C(=O)C5(C)CCCCC5)c4n3)cc2)CC1", "melting point": "278 to 285"}, {"smiles": "CCOc1cc2c3cc(OCC)c(OCC)cc3c3c(OC)ccc(OC)c3c2cc1OCC", "melting point": "157 to 158"}, {"smiles": "Cc1cc(C(=O)c2cccc(Br)c2)c(O)cc1Cl", "melting point": "115 to 117"}, {"smiles": "COCc1cc(N)n2nc(SC)c(S(=O)(=O)c3ccccc3)c2n1", "melting point": "> 230"}, {"smiles": "COc1ccc(/C=C(\\C#N)c2ccccc2[N+](=O)[O-])cc1OC1CCCC1", "melting point": "95.5 to 97"}, {"smiles": "Cc1[nH]c(=O)ccc1C(=O)c1ccc(O)cc1", "melting point": "280 to 282"}, {"smiles": "COC(=O)C1Cc2c([nH]c3ccccc23)C(C)N1Cc1ccccc1", "note": "(configuration not stated)", "melting point": "143 to 144"}, {"smiles": "COc1ccc(C2(O)CCCCC2)cn1", "melting point": "74 to 75"}, {"smiles": "Nc1ccc(OCc2nc3cc(F)ccc3s2)cc1", "melting point": "125 to 128"}, {"smiles": "O=S(=O)(Nc1ccc(Cl)cc1Sc1ccc(Cl)cc1)C(F)(F)F", "melting point": "83 to 84"}, {"smiles": "COC(=O)[C@H](O)CCCc1ccc(OCc2nc(-c3ccco3)oc2C)c(OC)c1", "melting point": "80 to 81"}, {"smiles": "CCCCC1=NC2(CCCC2)C(=O)N1Cc1ccc(-c2ccccc2S(=O)(=O)Nc2onc(C)c2C)c(OCCOC)c1", "melting point": "55 to 58"}, {"smiles": "O=S(=O)(NC1CCCCC1)c1ccc(Nc2nccc(Cl)n2)cc1", "melting point": "202 to 204"}, {"smiles": "Nc1ccc(C(=O)OCCCCl)c(N)c1", "melting point": 97}, {"smiles": "C=CCOC(=O)N[C@H]1CC(=O)O[C@H]1OCc1ccccc1", "melting point": "108 to 110"}, {"smiles": "BrCc1ccc(C=Cc2ccccc2)cc1", "melting point": "125 to 127"}, {"smiles": "CC(C)(C)OC(=O)CCN1CCN(CC2CN(c3ccc(C(=N)NC(=O)c4ccccc4)cc3)C(=O)O2)CC1", "note": "(configuration not stated)", "melting point": "136 to 137"}, {"smiles": "FC(F)(F)c1ccccc1-c1cccc(C=NNC(=S)NN2CCCC2)n1", "melting point": "142 to 146"}, {"smiles": "O=C(c1ccc(Cl)cc1)C(F)CCCl", "note": "(configuration not stated)", "melting point": 53}, {"smiles": "COc1nc(C(F)(F)F)cc(=O)n1-c1cc(OC(C)C)c(Br)cc1F", "melting point": 137}, {"smiles": "C=C(C)C(=O)OCCCCCCOc1ccc(/C=C/C(=O)OC)cc1", "melting point": "45 to 50"}, {"smiles": "CC1(C)C(=O)N(c2ccc(C#N)c(C(F)(F)F)c2)C(=O)N1CCCCOCc1ccccc1", "melting point": "75 to 76"}, {"smiles": "Cn1c(=O)c(C#N)c(Cl)c2ccccc21", "melting point": 235}, {"smiles": "CNc1cc(-c2ccc(Cl)cc2)nn1C", "melting point": 112}, {"smiles": "Cc1ccc(-c2cc[nH]c2)cc1", "melting point": "92 to 93"}, {"smiles": "CC(C)(C)C(NC(=O)c1ccc(Cl)cc1)NC(=NC#N)NCc1ccccn1", "note": "(configuration not stated)", "melting point": "184 to 185"}, {"smiles": "Nc1ccc(S(=O)c2ccccc2)cc1[N+](=O)[O-]", "note": "(configuration not stated)", "melting point": "146 to 147"}, {"smiles": "CCOC(=O)c1c(Cn2cnnc2)nc2cc3c(cc2c1-c1ccc(OC)c(OC)c1)OCCO3", "melting point": "237 to 239"}, {"smiles": "COC(=O)COc1nc(N)nc(-c2ccccc2)c1-c1ccc(=O)n(C(C)C)n1", "melting point": "150 to 152"}, {"smiles": "CCCCCCC(C)(C)c1ccc([C@@H]2CCC[C@H](O)C2)c(O)c1", "note": "(relative stereo)", "melting point": "109 to 110"}, {"smiles": "COc1ccc(C(=O)[C@H]2CC=CC[C@H]2C(=O)O)cc1OC", "note": "(relative stereo)", "melting point": "110 to 112"}, {"smiles": "O=C1c2ccccc2C(=O)c2c(O)c3c(c(O)c21)CCCC3", "melting point": "194 to 196"}, {"smiles": "Nc1cc(-c2c[nH]c3ncccc23)c2ccccc2n1", "melting point": 244}, {"smiles": "COc1cc(C(=O)O)cc2c1C(=O)c1c(OC)ccc(OC)c1C2=O", "melting point": "260 to 262"}, {"smiles": "CCOc1cccc(SCC(=O)O)c1CC(=O)O", "melting point": "147 to 150"}, {"smiles": "NC(=S)NN=C(COC(=O)Nc1ccccc1)c1ccccc1", "melting point": "155 to 165"}, {"smiles": "COc1cc(Cc2cnc(N)nc2NO)cc(OC)c1OC", "melting point": "208 to 210"}, {"smiles": "CC(C)c1[nH]nc2c1C(=O)c1c(NC(N)=O)cccc1-2", "melting point": "> 250"}, {"smiles": "CNC(=O)c1cccc(C(C(N)=O)c2c[nH]c3ccccc23)c1", "note": "(configuration not stated)", "melting point": "168 to 169"}, {"smiles": "CCc1cccc(CC)c1NC(=O)CC1c2ccccc2Oc2ccccc21", "melting point": "228 to 230"}, {"smiles": "CS(=O)(=O)Nc1cc2oc(N)cc(=O)c2cc1Oc1ccccc1", "melting point": "223 to 225"}, {"smiles": "O=C(C(c1ccccc1)n1cnc2[nH]ncc2c1=S)N1CCC(C2C=C(O)C=CN2)CC1", "note": "(configuration not stated)", "melting point": "138 to 142"}, {"smiles": "CC(=O)Oc1ccc(C(C)=NOCCOc2ccc(CC3SC(=O)NC3=O)cc2)cc1", "note": "(configuration not stated)", "melting point": "133 to 135"}, {"smiles": "CCOC(=O)c1c(C)cc2nc(C)n(-c3ccccc3Cl)c(=O)c2c1C", "melting point": "131 to 132"}, {"smiles": "COC(=O)c1ccc(C(=O)CC(=O)/C=C/c2ccc(O)c(OC)c2)cc1", "melting point": "187 to 189"}, {"smiles": "CS(=O)(=O)c1ccc(-c2nn(Cc3cccnc3)c(=O)cc2-c2ccc(Cl)cc2)cc1", "melting point": 248}, {"smiles": "Cc1cc(-c2nc3cccnn3c2-c2ccnc(NC(=O)c3cnccn3)c2)ccc1F", "melting point": "229 to 230"}, {"smiles": "Cc1cc(SC2=C(O)CC(C3CCCC3)(C3CCCC3)OC2=O)c(C(C)(C)C)cc1NS(=O)(=O)c1ccc(C(F)(F)F)cn1", "melting point": "127 to 129"}, {"smiles": "Nc1ccccc1Oc1cc(-c2ccc(C(F)(F)F)cc2)ncn1", "melting point": 188}, {"smiles": "COc1cc2c(cc1OC)OC(C#N)C2", "note": "(configuration not stated)", "melting point": 162}, {"smiles": "O=C(Nc1ccc(N2CCOCC2=O)cc1)[C@H]1CCCN1C(=O)c1ccc(Cl)s1", "melting point": 195}, {"smiles": "CCN(CC)C(=O)CCc1nc(-c2cccc(OC)c2)nc2ccccc12", "melting point": 87}, {"smiles": "CCCCCc1ccc(CCc2ccc(-c3ccc([C@H]4CC[C@H](CCCCC)CC4)cc3F)cc2)cc1", "melting point": 69}, {"smiles": "O=Cc1ccc(C(F)(F)F)cc1Oc1ccccc1", "melting point": "57 to 59"}, {"smiles": "Cc1c(-c2ncc([N+](=O)[O-])n2C)cnn1-c1ccccc1", "melting point": 194}, {"smiles": "Nc1ncccc1OCc1ccccc1Cl", "melting point": "95 to 100"}, {"smiles": "CC(C)(C)Sc1ssc(=S)c1Cl", "melting point": 45}, {"smiles": "NCC(=O)Nc1ccc(Cl)cc1C(=NCCO)c1ccccc1F", "melting point": "128 to 132"}, {"smiles": "O=S(=O)(c1cccc(C(F)(F)F)c1)c1cc(Br)nc(Br)c1", "melting point": "156 to 158"}, {"smiles": "CCOC(C)=CC(=O)Nc1ccc(Cl)c(Cl)c1", "melting point": 126}, {"smiles": "COc1ccccc1C(=O)NS(=O)(=O)c1ccc(NC(=O)c2ccc(Cl)cc2Cl)cc1", "melting point": "140 to 146"}, {"smiles": "CN1C(=O)C2CCCCC2N=C1c1ccccc1", "note": "(configuration not stated)", "melting point": "79 to 82"}]}]}
